Experimental data published in patent publication US8022056B2, “Compositions and methods for the treatment of cancer” (Tautatis, Inc, priority 2006, dated 2011).

Tests used:
[1] = system: target kinases versus GSK3, PKC and PKA; test: Kinase potency and selectivity profile under identical kinase assay conditions; assay type: biochemical
Description: Relative to the compounds disclosed in WO00/01699 and WO04/048384, compounds of the structural formula 1-4 have a higher degree of selectivity in favor of several antiproliferative kinases, as exemplified for the representative compound 1 and directly related compounds 7 of WO04/048384 and 8-9 of WO00/01699, containing the general scaffold of 10, respectively.

[2] = system: breast cancer tumor cell lines; details: large panel, Konecny et al.; cited from earlier work
ERK2 = ERK2 (Homo sapiens, UniProt P28482); test: Kinase inhibition under standard conditions, ERK2; assay type: biochemical
CDK1 = CDK1 (Homo sapiens, UniProt P06493); test: Kinase inhibition under standard conditions, CDK1; assay type: biochemical
GSK3 = test: Kinase inhibition under standard conditions, GSK3; assay type: biochemical
PKC = test: Kinase inhibition under standard conditions, PKC; assay type: biochemical
PKA = test: Kinase inhibition under standard conditions, PKA; assay type: biochemical
[3] = system: MDA-MB-231 breast cancer cell line; test: Long-term growth inhibition, crystal violet staining; assay type: cell-based, human
Method: The human estrogen receptor and EGF receptor negative MDA-MB-231 (HTB 26) breast cancer cell line (obtained from ATCC, Rockville, USA) were cultured in McCoy's 5A medium containing L-glutamine, 2.2 g/l NaHCO3 and 5% fetal calf serum. Cells were maintained in a water saturated atmosphere (95% air/5% carbon dioxide) at 37° C. in 75-cm^2 culture flasks, and were serially passaged following trypsinization using 0.05% trypsin/0.02% EDTA.
(§1) For proliferation assays tumor cell suspensions (100 μl/well) were seeded into 96-well flat bottomed microtitration plates at a density of ca. 15 cells/microscopic field (magnification 320×). After 2-3 days the culture medium was removed by suction and replaced by fresh medium (200 μl/well) containing varying concentrations of the compound of the formula 1 or vehicle (0.5% DMSO). Compound 1 was added as […] concentrated feed solutions. On every plate 16 wells served as controls and 16 wells were used per concentration of 1. After various times of incubation the cells were fixed with glutardialdehyde and stored in a refrigerator. At the end of the assay all plates were processed simultaneously (staining with 0.02% aqueous crystal violet solution (100 μl/well). Excess dye was removed by rinsing the trays with water for 20 min. The stain bound by the cells was redissolved in 70% ethanol (180 μl/well) while shaking the microplates for about 3 hours. Absorbance (proportional to cell mass) was measured at 578 nm using a BIOTEK 309 Autoreader. The results (mean values±standard deviation) were plotted as growth curves.

[4] = system: HT29 colon cancer cell line; test: as above; assay type: cell-based, human; details: 10 nM
Method: as §1
The HT29 human colon cancer cell line (obtained from ATCC, Rockville, USA) was cultured as above. Treatment with the compound of the formula 1 and analysis of growth inhibition was performed analogous to Example 3.

[5] = system: U373 glioblastoma cell line; test: as above; assay type: cell-based, human; details: U373, over a week
Method: as §1
The EGF-receptor independent U373 Human Glioblastoma cell line (obtained from ATCC, Rockville, USA) was cultured as above. Treatment with the compound of the formula 1 and analysis of growth inhibition was performed analogous to Example 3.

[6] = Propper et al.; cited from earlier work

Chain of ERK2 (P28482 whole entry, species assumed): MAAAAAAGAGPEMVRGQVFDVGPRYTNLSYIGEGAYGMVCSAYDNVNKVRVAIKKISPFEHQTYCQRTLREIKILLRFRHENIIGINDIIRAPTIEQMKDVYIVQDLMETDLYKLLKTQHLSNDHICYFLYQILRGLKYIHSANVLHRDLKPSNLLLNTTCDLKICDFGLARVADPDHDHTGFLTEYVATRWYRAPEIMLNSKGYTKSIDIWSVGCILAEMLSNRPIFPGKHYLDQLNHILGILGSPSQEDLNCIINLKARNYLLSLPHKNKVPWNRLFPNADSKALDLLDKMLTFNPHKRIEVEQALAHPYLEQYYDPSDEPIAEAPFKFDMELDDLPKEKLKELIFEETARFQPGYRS
Chain of CDK1 (P06493 whole entry, species assumed): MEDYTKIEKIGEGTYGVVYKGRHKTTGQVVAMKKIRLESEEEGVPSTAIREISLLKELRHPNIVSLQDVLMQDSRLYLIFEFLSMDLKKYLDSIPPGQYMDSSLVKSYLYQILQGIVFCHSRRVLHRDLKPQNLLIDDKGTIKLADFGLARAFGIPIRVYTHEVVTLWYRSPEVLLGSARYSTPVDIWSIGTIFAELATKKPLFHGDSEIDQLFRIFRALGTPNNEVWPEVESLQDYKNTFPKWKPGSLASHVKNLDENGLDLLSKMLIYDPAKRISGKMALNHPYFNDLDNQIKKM
Chain of CDK1 (P14635 whole entry partner, species assumed): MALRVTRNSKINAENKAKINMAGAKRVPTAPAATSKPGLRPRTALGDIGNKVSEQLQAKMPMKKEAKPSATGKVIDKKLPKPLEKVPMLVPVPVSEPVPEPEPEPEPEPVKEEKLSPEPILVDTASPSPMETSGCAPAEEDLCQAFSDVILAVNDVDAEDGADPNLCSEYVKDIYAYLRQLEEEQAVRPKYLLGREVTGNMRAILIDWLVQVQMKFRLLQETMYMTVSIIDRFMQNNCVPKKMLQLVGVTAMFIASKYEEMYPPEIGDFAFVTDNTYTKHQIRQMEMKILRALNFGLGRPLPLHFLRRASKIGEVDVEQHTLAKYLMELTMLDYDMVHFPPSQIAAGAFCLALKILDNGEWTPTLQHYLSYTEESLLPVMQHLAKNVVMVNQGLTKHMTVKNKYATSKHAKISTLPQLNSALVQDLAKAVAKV

Row | SMILES | potency and selectivity profile compared with 1 [1] | IC50 (ERK2) [nM] | IC50 (CDK1) [nM] | IC50 (GSK3) [nM] | IC50 (PKC) [nM] | IC50 (PKA) [nM] | other results
1 | C[C@]12O[C@H](C[C@]1(N)C(N)=O)n1c3ccccc3c3c4c(c5c6ccccc6n2c5c31)CNC4=O [Compound 2] | virtually identical potency and selectivity profile as 1 | – | – | – | – | – | –
2 | CS(=O)(=O)CCNCc1ccc(-c2ccc3ncnc(Nc4ccc(OCc5cccc(F)c5)c(Cl)c4)c3c2)o1 [Tykerb] | – | – | – | – | – | – | share of breast cancer tumor cell lines with growth inhibitory activity [2]: about 20%
3 | CNC(=O)[C@@]1(N)C[C@H]2O[C@]1(C)n1c3ccccc3c3c4c(c5c6ccccc6n2c5c31)C(=O)NC4=O [Compound 3] | virtually identical potency and selectivity profile as 1 | – | – | – | – | – | –
4 | CNC(=O)[C@@]1(O)CC2CC1n1c3ccccc3c3c4c(c5c6ccccc6n2c5c31)C(=O)NC4=O (some centres unmarked) [Compound 8] | – | 120 | 63 | 37 | 120 | 78 | –
5 | COC(=O)[C@@]1(N)CC2OC1(C)n1c3ccccc3c3c4c(c5c6ccccc6n2c5c31)C(=O)NC4 (some centres unmarked) [Compound 6] | – | 870 | 650 | > 10000 | > 10000 | > 10000 | growth of MDA-MB-231 cells ([3]; 10 nM, 1 week of exposure): virtually ineffective; concentration required for a similar effect as 10 nM of 1 ([3]; MDA-MB-231, 1 week): ten-fold higher concentration; proliferation of HT29 cells [4]: completely ineffective; concentration required for a similar effect as 10 nM of 1 [5]: ten-fold higher concentration
6 | C[C@]12O[C@H](C[C@]1(N)C(N)=O)n1c3ccccc3c3c4c(c5c6ccccc6n2c5c31)C(=O)NC4=O [Compound 4] | virtually identical potency and selectivity profile as 1 | – | – | – | – | – | –
7 | CNC(=O)[C@@]1(O)CC2CC1n1c3ccccc3c3c4c(c5c6ccccc6n2c5c31)C(=O)NC4 (some centres unmarked) [Compound 9] | – | 480 | 110 | 400 | 210 | 550 | –
8 | CO[C@@H]1[C@H](N(C)C(=O)c2ccccc2)C[C@H]2O[C@]1(C)n1c3ccccc3c3c4c(c5c6ccccc6n2c5c31)C(=O)NC4 [PKC-412] | – | – | – | – | – | – | human serum binding [6]: extreme human serum binding
9 | CNC(=O)[C@@]1(N)CC2CC1n1c3ccccc3c3c4c(c5c6ccccc6n2c5c31)C(=O)NC4 (some centres unmarked) [Compound 7] | – | 600 | 180 | 350 | 260 | 440 | –
